The test system of this assay is CEM cells HIV-1 protection, formazan growth assay. The assay can be described thus: NCI AIDS Antiviral Assay. The following applies: for IC50: measured here: growth of uninfected CEM cells. An outline of the steps:
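Human CEM cells, uninfected and HIV-1-infected, exposed to five drug concentrations; growth measured by soluble formazan assay and scored as percent protection from infection, with protecting compounds retested.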

“And” between values parts separate entries of the source, which are not always exact repeats. Equal values may be shown once. The source made the active and inactive calls.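 How the source made its calls: active means compounds giving half or more protection of infected cells from virus-caused growth loss, again on retest; inactive means the rest.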

Broadly, the EC50 is the midpoint of the concentration-response curve. As usually defined, the IC50 is the point on the concentration scale where inhibition reaches its midpoint. A low value points to inhibition by little substance.

As to `[N-]=[N+]=NC12CC3CC4C5CC(CC41)CC2[C@H]5C3`, the EC50 was > 81.3 µM and the IC50 was > 81.3 µM.
On to `O=C1C(Cl)N(c2ccccc2Cl)C1c1c[nH]c2ccccc12` (stereo not drawn), for which the EC50 is > 398 µM and the IC50 was > 200 µM.
Regarding `NC(N)=NNC(=O)CCn1[nH]c(=O)c(Cl)c(Cl)c1=O`, the EC50 is > 813 µM and the IC50 was > 813 µM.
In the case of `c1ccc2c(c1)Cc1cn3ncnc3nc1-2`, the EC50 is > 200 µM and the IC50 is > 200 µM.
Regarding `CC1CCCCc2nc3c(c(=O)n21)CCCC3` (stereo not drawn), the EC50 is > 562 µM and the IC50 was 347 µM.
On the same counts, the results for `CCOC(=O)c1cn(Cc2ccccc2)c(=O)n1Cc1ccccc1` are > 107 µM and 60.3 µM.
On the same counts, the results for `CC(=O)N/N=C(/C)c1cccs1` are > 200 µM and > 200 µM.
`CCC(/C(=N\Nc1c(Cl)cc(Cl)cc1Cl)c1ccccc1)n1ccnc1C` (stereo not drawn): the result was inactive.
Regarding `O=C(CCCC[n+]1ccccc1)Sc1ccccc1C(=O)NCc1ccc2c(c1)OCO2`, the EC50 is > 200 µM and the half-inhibitory concentration (IC50) came out at 3.02 µM.
On the same counts, the results for `CCOC(=O)/C(=C\c1cccc(Br)c1)P(=O)(OCC)OCC` are > 91.2 µM and 6.03 µM.
On the same counts, the results for `CN(C)CCc1c2c(nc3ccccc13)C(=O)c1ccccc1C2=O` are > 200 µM and 0.933 µM.
Regarding `N#Cc1c(-c2cccc3ccccc23)c2c([nH]c1=S)CCCC2`, the EC50 was > 79.4 µM and the IC50 stood at 34.7 µM.
On the same counts, the results for `CCOC(=O)C/C(C)=N\NS(=O)(=O)c1ccc(N)cc1` are > 417 µM and > 417 µM.
Consider `O=C(c1ccccc1)N1OC2C=CC1CC2` (stereo not drawn), for which the EC50 is > 1150 µM and the IC50 was > 1150 µM.
Consider `Nc1ccc2c(c1)CN1C(=O)c3ccccc3C1=N2`, for which the EC50 is > 15.1 µM and the IC50 was determined as 2.95 µM.
With `CCC[CH2][Sn]1([CH2]CCC)[O]CC(Cc2ccccc2)[O]1` (stereo not drawn), the EC50 is > 17 µM and the IC50 came to 0.331 µM.
On the same counts, the results for `N#CCCN(CCC#N)c1ccc(/C=C2\CC(O)(c3ccccc3)NC2=O)cc1` (stereo not drawn) are > 7.08 µM and > 7.08 µM.
On the same counts, the results for `COc1cccc(NC(=S)/C(=C(/[O-])c2ccc(C)cc2)[n+]2ccccc2)c1` are > 200 µM and > 200 µM.
On the same counts, the results for `CC(=O)C1=C(C)NC(C)=C(C(C)=O)C1c1cccc([N+](=O)[O-])c1` are 182 µM and > 200 µM.
With `O=S(=O)(O)SCCNCC(O)C(O)CNCCSS(=O)(=O)O` (stereo not drawn), the EC50 is > 617 µM and the IC50 stood at 120 µM.
As to `CC(=O)OCC1OC(n2c3c(cc(C#N)c2=S)CCCCC3)C(OC(C)=O)C(OC(C)=O)C1OC(C)=O` (stereo not drawn), the EC50 was > 200 µM and the IC50 is > 200 µM.
As to `COC(=O)C1=C(C(=O)OC)SC(=CC#CC=C2SC(C(=O)OC)=C(C(=O)OC)S2)S1`, the EC50 was > 5.62 µM and the IC50 was > 5.62 µM.
`CSc1nc(NC2OC(CO)C(O)C(O)C2O)cc(=O)n1C` (stereo not drawn): the outcome was inactive.
Regarding `COC(=O)[C@@H]1O[C@]12C(CO[Si](C)(C)C(C)(C)C)OC(n1ccc(=O)[nH]c1=O)C2O[Si](C)(C)C(C)(C)C` (stereo partly drawn), the EC50 was > 200 µM and the half-maximal inhibitory concentration (IC50) is 9.77 µM.
As for `CSC1=C(C)S/C(=C\c2ccc(/C=C3\SC(C)=C(SC)S3)cc2)S1`, the result was inactive.
With `Cc1cc2c(c3ncccc13)OCN(Cc1ccc(Cl)cc1)C2`, the EC50 was > 200 µM and the concentration for half-maximal inhibition (IC50) was found to be 1.07 µM.
Turning to `COc1ccc([C@@H]2CC(=O)NCCCNCCCCNCCCN2)cc1`, the EC50 was > 200 µM and the IC50 amounted to 123 µM.
With `COc1cc(C2C3=C(COC3=O)OC(C)(C)Oc3cc4c(cc32)OCO4)cc(OC)c1OC` (stereo not drawn), the EC50 was > 2 µM and the IC50 amounted to 0.355 µM.
In the case of `CCOc1ccccc1NC(=O)C(=O)CC(=O)c1sc(Nc2nnc(-c3ccc(Cl)c(Cl)c3)o2)nc1C`, the EC50 is > 33.9 µM and the IC50 was > 33.9 µM.
For `CSCCC1OCC2OC(n3ccc(=O)[nH]c3=O)CC2N1O` (stereo not drawn), the EC50 is > 200 µM and the IC50 was > 200 µM.
As to `COc1cc(O)c2c(=O)c(O)c(-c3ccc(O)c(OC)c3)oc2c1`, the EC50 is > 200 µM and the IC50 was > 200 µM.
`CCOc1cc2c(c(OCC)c1O)CC[C@@H]1[C@@H]2CC[C@]2(C)[C@@H](O)CC[C@@H]12`: the EC50 was > 2 µM and the half-inhibitory concentration (IC50) was found to be 0.776 µM.
Turning to `Cc1cc2n(C)cc(-c3ccnn3C)c(=O)n2n1`, the EC50 is > 151 µM and the IC50 is > 151 µM.
Consider `O=c1c2ccccc2oc2ccccc12`, for which the EC50 was > 26.3 µM and the IC50 was > 26.3 µM.
As for `COc1cc(OC)nc(Nc2c(C#N)c3nc4ccccc4n3c3ccccc23)n1`, the EC50 was > 100 µM and the IC50 was > 100 µM.
Turning to `O=C1CCCc2c(O)ccc(O)c21`, the EC50 is > 380 µM and the half-maximal inhibitory concentration (IC50) worked out at 60.3 µM.
On the same counts, the results for `COC(=O)c1cc(C(=C(Cl)Cl)c2cc(C(=O)OC)c(OC)c(Br)c2C)c(C)c(Br)c1OC` are > 200 µM and 79.4 µM.
On the same counts, the results for `CCOP(=O)(OCC)C(N)Cc1ccc(OC)c(OC)c1` (stereo not drawn) are > 200 µM and > 200 µM.
On the same counts, the results for `CC(=O)Nc1ccc(CNc2cc(=O)n(C)c(=O)[nH]2)cc1` are > 200 µM and > 200 µM.
For the compound `CC(=O)OC1[C@@H](OC(C)=O)[C@H](OC(C)=O)C2(CO2)[C@H](OC(C)=O)[C@H]1OC(C)=O` (stereo partly drawn), the EC50 was > 200 µM and the IC50 turned out to be 12.3 µM.
On the same counts, the results for `COC[C@@H](N=CN1CCc2cc(OC)c(OC)cc2[C@@H]1C)C(C)(C)C` are > 513 µM and 490 µM.
Turning to `Cc1nc2ccc(Br)cc2c(=O)n1-c1ccc(NC2OCC(O)C(O)C2O)cc1` (stereo not drawn), the EC50 was > 200 µM; the IC50 was 20.9 µM and 138 µM.
Take `COC(=O)/C=C(\C)CCC1SC1(C)C` (stereo not drawn): the EC50 was > 100 µM and the IC50 is > 100 µM.
With `Cc1nc2n[nH]c(N)c2nc1C`, the EC50 was > 83.2 µM and the IC50 was > 83.2 µM.
Take `CC(C)(C)CC(C)(C)c1ccc(OCCO)cc1`: the outcome was inactive.
As for `COc1ccc2c(c1)-c1nn(CCCN(C)C)c3ccc([N+](=O)[O-])c(c13)N2`, the EC50 is > 537 µM, the outcome was inactive and the IC50 is 0.17 µM.
In the case of `c1ccc(C2Nc3ccccc3C3OCCCC23)cc1` (stereo not drawn), the EC50 is > 70.8 µM and the IC50 was > 70.8 µM.
Take `NCCC1C2CC3CC(C2)CC1C3` (stereo not drawn): the result was inactive.
In the case of `CC12c3c4ccc(C=O)c3Oc3ccc(C=O)c(c31)Oc1ccc(C=O)c(c12)O4`, the EC50 is > 25.1 µM and the IC50 was 13.5 µM.
`FC(F)C(F)(F)N1c2ccccc2Sc2ccccc21`: the EC50 is > 200 µM and the concentration for half-maximal inhibition (IC50) amounted to 72.4 µM.
Turning to `CN(C)CN(C)c1nc(N(C)C)nc(N(C)CN(C)C)n1`, the EC50 is > 200 µM and the IC50 stood at 32.4 µM.
As to `CCOC(=O)c1cc2nc3ccccc3c(=O)n2c2ccccc12`, the EC50 was > 200 µM and the IC50 is > 200 µM.
Regarding `CC(C(N)=O)N(C)C(=O)c1cnc2ccccc2c1` (stereo not drawn), the result was inactive.
Take `CCC1(O)CCC2C3CC=C4CCCCC4C3CCC21C` (stereo not drawn): the EC50 is > 200 µM and the IC50 stood at 30.9 µM.
